Patent publication US10557129B2, “Peptides derived from human PCSK9 catalytic domain and uses thereof for promoting LDL-R activity” (Pronasci Inc., priority 2015, dated 2020)

Legend:
[1] = Model fluorescence quenching of FI-Bio-Ahx-Lys-Methyl ester (IIId) by biotin-binding proteins; conditions: for maximal quenching of fluorescence intensity of (IIId): data not shown; for quenching of fluorescence intensity of (IIId): 8:1 molar ratio protein:(IIId), FIGS. 7A, 7B
Procedure: FIG. 7A illustrates fluorescence scan spectroscopy of FI-Bio-Ahx-Lys-Methyl ester (IIId) in presence of avidin.
FIG. 7B illustrates fluorescence scan spectroscopy of FI-Bio-Ahx-Lys-Methyl ester (IIId) in presence of insulin as control peptide. […] For each experiment 5 μl of 0.5 mM (IIId) peptide in water was used.
Previously a number of studies reported that the interaction between two ligands one of which is fluorescence labeled can be followed by studying fluorescence intensity. In general the fluorescence intensity is suppressed with or without shift of emission peak position when there is a strong interaction between the two ligands. Greater the suppression or quenching of fluorescence intensity, greater is the strength of binding. In order to further confirm the above notion, a study was carried out by using a fixed concentration of fluorescent biotinylated peptide (IIId) and increasing doses of avidin protein. […] These avidin analogs with varying binding affinity towards biotin have been developed and made available through commercial organizations [Polyscience Inc., Technical Data Sheet Report-779]. […] This study confirms that fluorescence quenching is an indicator of binding between two ligands one of which is fluorescently labeled.

[2] = Molecular Probes handbook; read-out: Kd with biotin; cited from earlier work
[3] = target: T1, recombinant hPCSK9 wild type (Homo sapiens, UniProt Q8NBP7); test: SDS-PAGE fluorescence / western blot binding of FI-EGF-A to recombinant FLAG-hPCSK9; conditions: 5 μg FI-EGF-A + 1 μg rec-hPCSK9 WT, 2 h room temperature; fluorescent band at ~65 kDa; FIG. 12
T1 construct: complex formation between 60 kDa rec-hPCSK9 mature form with 5 kDa FI-EGF-A; made in house
Procedure: FIG. 12 illustrates SDS-Gel electrophoresis of FI-EGF-A peptide in presence and absence of recombinant hPCSK9 protein. 5 μg of FI-EGF-A (Ib) was incubated with 1 μg rec-hPCSK9 wild type (WT) for 2 h at room temperature. The samples were resolved in 10% SDS PAGE. Left: Fluorescence detection; Right: Western blot using anti-FLAG as primary antibody. There is a fluorescence positive band around 65 kDa (a mobility shift by ˜5 kDa) shown by thick arrow indicating complex formation between 60 kDa rec-hPCSK9 mature form with 5 kDa FI-EGF-A (Ib) (Left panel). […] It is also noticed that after incubation with FI-EGF-A peptide, the 74 kDa PCSK9 protein is not recognized by anti-FLAG antibody while the 60 kDa hPCSK9 protein is still recognized but with reduced potency. […]
Binding assays of various PCSK9 peptides were carried out by incubating 15 μg of each peptide (˜0.008 mM) with 20 μg of FL-EGF-A in a final volume of 20 μl of 25 mM HEPES (pH 7.4), 150 mM NaCl, 2 mM CaCl2 for 2 h at 37° C. Similar study was also performed using recPCSK9 wild type as well as D/Y variants against FI-EGF-A. Each sample along with the control without any added peptide was assessed for any binding between FI-EGF-A and peptide using fluorescence study, Mass spectrometry and Native gel studies […]

LDL-R [4] = test: Rescue of LDL-R level in cells after addition of rec-PCSK9 protein (HuH7); format: cell-based, human
Procedure: FIG. 13 illustrates (A) Western blot analyses showing the quantitation of LDL-R and PCSK9 levels under various conditions in HepG2 cells. These are western blot figures showing the effect of externally added FI-EGF-A peptide on exogenous levels of LDL-R and PCSK9 in growing HepG2 cells. The cells were harvested after 24 h and whole cell lysates were used for analysis of LDL-R, PCSK9 and actin levels both for control sample (DMSO) and FI-EGF-A done in duplicates. Actin was used as a house keeping control protein for quantitation purpose. (B): Rescue effect of FI-EGF-A peptide added in increasing concentration levels on LDL-R in growing HuH7 cells in the presence of added rec-PCSK9 protein. […]
(§1) In general 20 μg of WCLs derived from various peptide treated HepG2 cell experiments was resolved by conventional 12% SDS-PAGE (Laemmli, 1970 #2). Resolved samples were then transferred to polyvinylidene fluoride (Bio-Rad #162-0177) and probed for LDL-R (R&D Systems #AF2148), hPCSK9 (Circulex #CY-M1033), Transferrin Recepter (TR) (Invitrogen #13-6800), αβ-actin-HRP (Horse Radish Peroxidase) (abcam #ab49900) and αFLAG-HRP (abcam #1238) primary antibodies and detected with α goat-HRP (abcam #ab6741) or a mouse-HRP (Bio-Rad #172-1011) secondary antibodies and visualized on a Bio-Rad versa dock imaging system using Clarity ECL Western Substrate (Bio-Rad #170-5060). […]

LDL-R [5] = target: T2, LDL-R (Homo sapiens, UniProt P01130); test: LDL-R level in HepG2 cells by western blot of whole cell lysates; format: cell-based
T2 construct: western blot analyses for endogenous LDL-R; endogenous in cells; host or cells: HepG2
Procedure: (§2) FIG. 13 illustrates (A) Western blot analyses showing the quantitation of LDL-R and PCSK9 levels under various conditions in HepG2 cells. These are western blot figures showing the effect of externally added FI-EGF-A peptide on exogenous levels of LDL-R and PCSK9 in growing HepG2 cells. The cells were harvested after 24 h and whole cell lysates were used for analysis of LDL-R, PCSK9 and actin levels both for control sample (DMSO) and FI-EGF-A done in duplicates. Actin was used as a house keeping control protein for quantitation purpose. (B): Rescue effect of FI-EGF-A peptide added in increasing concentration levels on LDL-R in growing HuH7 cells in the presence of added rec-PCSK9 protein. Rec-PCSK9 was incubated with various amounts of FI-EGF-A for 3 h at room temp and then applied to cells growing in 2 mL media to the concentrations as indicated in the figure. The cells were harvested 7 h later.
(§3) FIG. 14 illustrates Western blots showing PCSK9 and LDL-R levels in the presence of various PCSK9 catalytic peptides in HepG2 cell. […]
(§4) The number passages of cell lines used were 6-8 times until they are at least 80% confluent as determined by microscope. […] All culture samples including whole cell lysate (WCL) were analysed for their protein contents using Pierce BCA (Bicinchoninic acid) reagent method or Bradford assay (Bio-Rad #500-0205) as described later.
as §1

PCSK9 = PCSK9 level in HepG2 cells by western blot of whole cell lysates; format: cell-based, human; conditions: HepG2, 12 μg/ml, 24 h; FIG. 13A
Procedure: as §2, §3
as §4, with “later. […]” for “later.”

LDL-R [6] = target: T2, LDL-R; conditions: added exogenously to growing HepG2 cells; cited from earlier work

T2 sequence (P01130 22-860): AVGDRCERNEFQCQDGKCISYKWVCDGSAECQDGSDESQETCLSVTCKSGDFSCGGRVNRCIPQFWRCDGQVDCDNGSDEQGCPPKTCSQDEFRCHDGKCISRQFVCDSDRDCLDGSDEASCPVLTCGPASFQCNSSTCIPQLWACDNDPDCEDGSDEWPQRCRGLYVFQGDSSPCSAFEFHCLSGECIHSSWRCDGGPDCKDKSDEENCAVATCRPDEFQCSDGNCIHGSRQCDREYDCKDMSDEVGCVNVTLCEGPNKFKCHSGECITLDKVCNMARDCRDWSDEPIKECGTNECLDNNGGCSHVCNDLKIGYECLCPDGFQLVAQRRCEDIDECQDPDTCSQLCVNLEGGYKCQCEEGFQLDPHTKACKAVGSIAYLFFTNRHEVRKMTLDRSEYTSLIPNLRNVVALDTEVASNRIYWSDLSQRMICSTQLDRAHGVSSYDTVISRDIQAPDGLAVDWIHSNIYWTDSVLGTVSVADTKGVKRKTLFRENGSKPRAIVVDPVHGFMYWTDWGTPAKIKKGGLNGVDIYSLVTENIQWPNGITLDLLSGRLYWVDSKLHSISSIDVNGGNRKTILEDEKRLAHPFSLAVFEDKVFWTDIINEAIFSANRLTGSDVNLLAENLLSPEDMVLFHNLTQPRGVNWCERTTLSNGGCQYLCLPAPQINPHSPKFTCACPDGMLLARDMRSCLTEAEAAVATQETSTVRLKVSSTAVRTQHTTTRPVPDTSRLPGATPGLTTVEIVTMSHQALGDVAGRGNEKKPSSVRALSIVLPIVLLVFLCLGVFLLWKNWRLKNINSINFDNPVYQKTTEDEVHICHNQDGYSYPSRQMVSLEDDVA
T1 sequence (Q8NBP7 153-692): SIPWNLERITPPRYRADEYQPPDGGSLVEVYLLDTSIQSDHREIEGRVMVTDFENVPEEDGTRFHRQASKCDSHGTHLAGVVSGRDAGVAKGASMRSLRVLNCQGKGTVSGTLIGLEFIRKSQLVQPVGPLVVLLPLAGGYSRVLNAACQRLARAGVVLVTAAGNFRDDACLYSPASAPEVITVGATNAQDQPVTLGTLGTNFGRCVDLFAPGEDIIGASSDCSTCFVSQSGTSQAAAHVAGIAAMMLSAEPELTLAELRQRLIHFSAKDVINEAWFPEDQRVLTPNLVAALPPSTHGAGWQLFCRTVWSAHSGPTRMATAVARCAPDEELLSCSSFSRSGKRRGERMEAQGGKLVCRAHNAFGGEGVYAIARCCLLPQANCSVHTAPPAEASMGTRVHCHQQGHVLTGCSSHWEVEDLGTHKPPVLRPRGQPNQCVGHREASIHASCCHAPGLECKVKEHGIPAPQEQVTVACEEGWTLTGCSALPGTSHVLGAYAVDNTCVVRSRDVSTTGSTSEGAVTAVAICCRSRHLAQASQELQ
T1 sequence (Q8NBP7 31-152 partner limits assumed): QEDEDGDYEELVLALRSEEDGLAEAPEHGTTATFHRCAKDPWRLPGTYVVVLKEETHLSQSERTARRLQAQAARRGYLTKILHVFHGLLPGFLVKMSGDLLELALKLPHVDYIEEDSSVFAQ

Nutravidin: avidin analog with binding affinity towards biotin
maximal quenching of fluorescence intensity of (IIId) [1]: 85%

avidin: biotin-binding protein
quenching of fluorescence intensity of (IIId) [1]: ~98%

streptavidin: avidin analog with binding affinity towards biotin
maximal quenching of fluorescence intensity of (IIId) [1]: ~81.4%
Kd [2]: ~0.1 nM

FI-EGF-A: 5-Carboxy Fluorescein N-terminally labeled 42 aa EGF-A domain peptide of hLDL-R (aa314-355)
complex formation with recPCSK9 [3]: forms a stable complex
restoration of LDL-R level after rec-PCSK9 (LDL-R [4]; HuH7 cells, rec-PCSK9 20 μg/ml, increasing amounts of FI-EGF-A, FIG. 13B): partly restored gradually
LDL-R level versus DMSO control (LDL-R [5]; HepG2, 12 μg/ml, 24 h, standardized against actin, FIG. 13A): significant up regulation of the LDL-R
PCSK9 level versus DMSO control (PCSK9): marked up regulation of PCSK9

h insulin: control peptide which does not bind with biotin
quenching of fluorescence intensity of (IIId) [1]: 30%

(aa181-200): peptide of catalytic segment of hPCSK9 (aa181-200) from a previous study (EVYLLDTSIQSDHREIEGRV; UniProt Q8NBP7 181-200, looked up, fragment)
LDL-R promoting effect (previous study) (LDL-R [6]): modest LDL-R promoting effect

GEDIIGASSDCSTCFVSQSG [CP3]
rescue of LDL-R level following degradation by externally added PCSK9 protein (LDL-R [4]; cell line not stated at the place (HepG2 or HuH7)): can rescue LDL-R level to a significant level
LDL-R promoting activity (LDL-R [5]; HepG2, 5.5 μM, FIG. 16): modest but significant LDL-R promoting activity

^365GEDIIGASSDASTCFVSQSG^384 [CP3-C/A]
LDL-R promoting effect of acyclic mutant compared with CP3 (LDL-R [5]; HepG2, FIG. 16): completely lost

(aa368-390): peptide of catalytic segment of hPCSK9 (aa368-390) from a previous study (IIGASSDCSTCFVSQSGTSQAAA; UniProt Q8NBP7 368-390, looked up, fragment)
LDL-R promoting effect (previous study) (LDL-R [6]): modest LDL-R promoting effect

Captavidin: avidin analog with binding affinity towards biotin
maximal quenching of fluorescence intensity of (IIId) [1]: 75.5%
